From patent publication US20250144067A1, “PERSONALIZED STARVATION THERAPY FOR CANCER” (Faeth Therapeutics, Inc., priority 2021, published 2025)

How the values were obtained:
[1] = test system: NCI-H292 lung cancer cells; assay: FDA drug screening, complete media vs cholesterol-free media without statin (TABLE 1); assay type: cell-based, human; conditions: for Difference: about 0 neutral
[2] = test system: NCI-H292 lung cancer cells; assay: FDA drug screening, complete media vs cholesterol-free media with simvastatin (TABLE 2); assay type: cell-based, human; conditions: for Cholesterol-free media + simvastatin (0.04 μM) / Complete Media: NCI-H292 cells; for Difference: >0 enhanced anti-cancer activity, about 0 neutral, <0 antagonist
[3] = Complete minus Cholesterol-free, >0 enhanced anti-cancer activity, <0 antagonist
[4] = NCI-H292 cells, cholesterol-free media without statin, FDA drug library screen
[5] = NCI-H292 cells, complete media, FDA drug library screen
[6] = FDA library drug in cholesterol-free media with simvastatin 0.04 μM
[7] = FDA library drug in complete media
[8] = complete media vs cholesterol-free media + simvastatin (0.04 μM)
[9] = Complete minus Cholesterol-free, greater than 0 enhanced anti-cancer activity, below 0 antagonist
[10] = NCI-H292 cells, FDA drug library screen, cholesterol-free media without statin
[11] = NCI-H292 cells, FDA drug library screen, complete media
[12] = FDA drug library screen, cholesterol-free media with simvastatin 0.04 μM
[13] = FDA drug library screen, complete media
[14] = complete media minus cholesterol-free media + simvastatin
[15] = drug in cholesterol-free media with simvastatin 0.04 μM
[16] = NCI-H292 cells, cholesterol-free media without statin
[17] = complete vs cholesterol-free media, greater than 0 enhanced anti-cancer activity, below 0 antagonists
[18] = Complete minus Cholesterol-free, greater than 0 enhanced anti-cancer activity, below 0 antagonists
[19] = NCI-H292 cells in cholesterol-free media without statin
[20] = NCI-H292 cells in complete media
[21] = cholesterol-free media with simvastatin 0.04 μM, FDA drug library screen (TABLE 2)
[22] = complete media, FDA drug library screen (TABLE 2)
[23] = complete media minus cholesterol-free media + simvastatin (0.04 μM)

CC(=O)N(CC(O)CO)c1c(I)c(C(=O)NCCO)c(I)c(C(=O)NCC(O)CO)c1I (stereo not drawn) [Ioxilan]
Difference [1, 3]: 0.04 | Cholesterol-free [1, 4]: 1.015 | Complete [1, 5]: 1.05 | Cholesterol-free media + simvastatin (0.04 μM) [2, 6]: 1.221 | Complete Media [2, 7]: 0.868 | Difference [2, 8]: −0.35

CC1=C(C(=O)OC(C)C)C(c2cccc([N+](=O)[O-])c2)C(C(=O)OC2CN(C(c3ccccc3)c3ccccc3)C2)=C(N)N1 (stereo not drawn) [Azelnidipine]
Difference [1, 9]: −0.15 | Cholesterol-free [1, 10]: 0.7076 | Complete [1, 11]: 0.5567 | Cholesterol-free media + simvastatin (0.04 μM) [2, 12]: 0.7982 | Complete Media [2, 13]: 1.013 | Difference [2, 14]: 0.21

COc1cc2nc(N3CCN(C(=O)[C@@H]4CCCO4)CC3)nc(N)c2cc1OC [(S)-Terazosin]
Difference [1, 3]: 0.01 | Cholesterol-free [1, 4]: 0.9099 | Complete [1, 5]: 0.9163 | Cholesterol-free media + simvastatin (0.04 μM) [2, 12]: 0.9768 | Complete Media [2, 13]: 0.8794 | Difference [2, 8]: −0.10

NC(=O)c1ncn([C@@H]2O[C@H](CO)[C@@H](O)[C@H]2O)n1 [Ribavirin]
Difference [1, 9]: −0.11 | Cholesterol-free [1, 10]: 0.8402 | Complete [1, 11]: 0.7281 | Cholesterol-free media + simvastatin (0.04 μM) [2, 15]: 0.9314 | Complete Media ([2]; drug in complete media): 0.6899 | Difference [2, 8]: −0.24

NC(=O)c1cc[n+](CC2=C(C(=O)O)N3C(=O)[C@@H](NC(=O)[C@@H](c4ccccc4)S(=O)(=O)[O-])[C@H]3SC2)cc1 [Cefsulodin (sodium)]
Cholesterol-free [1, 16]: 1.045 | Complete ([1]; NCI-H292 cells, complete media): 0.6569 | Difference [1, 17]: −0.39 | Cholesterol-free media + simvastatin (0.04 μM) [2, 12]: 1.191 | Complete Media [2, 13]: 1.113 | Difference [2, 8]: −0.08

CCOC(=O)[N-]c1cn(N2CCOCC2)n[o+]1 [Molsidomine]
Difference [1, 18]: −0.60 | Cholesterol-free [1, 19]: 1.343 | Complete [1, 20]: 0.7419 | Cholesterol-free media + simvastatin (0.04 μM) [2, 12]: 1.15 | Complete Media [2, 13]: 1.6 | Difference [2, 14]: 0.45

Nc1nc2nc[nH]c2c(=S)[nH]1 [6-Thioguanine]
Cholesterol-free [1, 16]: 0.7053 | Complete ([1]; NCI-H292 cells, complete media): 0.3153 | Difference [1, 17]: −0.39 | Cholesterol-free media + simvastatin (0.04 μM) [2, 21]: 0.7013 | Complete Media [2, 22]: 0.7052 | Difference [2, 23]: 0.00

CC1=C(C/C=C(\C)CCC[C@H](C)CCC[C@H](C)CCCC(C)C)C(=O)c2ccccc2C1=O [Vitamin K1]
Cholesterol-free [1, 4]: 0.9273 | Complete [1, 5]: 1.412 | Difference ([1]; complete vs cholesterol-free media, >0 enhanced anti-cancer activity, <0 antagonist): 0.48 | Cholesterol-free media + simvastatin (0.04 μM) [2, 6]: 1.062 | Complete Media [2, 7]: 0.6359 | Difference [2, 8]: −0.43

Nc1ncnc2c1ncn2[C@@H]1O[C@H](CO)[C@@H](O)[C@@H]1O [Vidarabine]
Cholesterol-free [1, 16]: 1.542 | Complete ([1]; NCI-H292 cells, complete media): 1.194 | Difference [1, 17]: −0.35 | Cholesterol-free media + simvastatin (0.04 μM) [2, 15]: 0.9857 | Complete Media ([2]; drug in complete media): 0.8059 | Difference [2, 8]: −0.18

O=C(c1cc(Cc2n[nH]c(=O)c3ccccc23)ccc1F)N1CCN(C(=O)C2CC2)CC1 [Olaparib]
Difference [1, 18]: −0.72 | Cholesterol-free [1, 19]: 1.436 | Complete [1, 20]: 0.7169 | Cholesterol-free media + simvastatin (0.04 μM) [2, 21]: 0.8331 | Complete Media [2, 22]: 0.8347 | Difference [2, 23]: 0.00

OC[C@@H](O)[C@@H](O[C@@H]1O[C@H](CO)[C@H](O)[C@H](O)[C@H]1O)[C@H](O)[C@@H](O)CO [Lactitol (monohydrate)]
Difference [1, 9]: −0.17 | Cholesterol-free [1, 10]: 1.059 | Complete [1, 11]: 0.8908 | Cholesterol-free media + simvastatin (0.04 μM) ([2]; cholesterol-free media with simvastatin 0.04 μM, cell growth value in FDA drug screen): 1.183 | Complete Media ([2]; complete media, cell growth value in FDA drug screen): 1.215 | Difference [2, 14]: 0.03
